Laboratory results taken from US20230295163A1, “TETRACYCLIC DERIVATIVE, METHOD FOR PREPARING SAME AND USE THEREOF IN MEDICINE” (ZHEJIANG HISUN PHARMACEUTICAL CO., LTD., priority 2020, published 2023).

Tests used:
[1] = target: T1, recombinant human KRAS G12C protein (Homo sapiens, UniProt P01116, G12C); assay: Covalent binding ability to KRAS G12C protein (LC-MS); conditions: 3 μM, 5 min
T1 construct: The recombinant human KRAS G12C protein (aa1-169)
Protocol: The following method was used to determine the covalent binding ability of the compounds of the present disclosure to recombinant human KRAS G12C protein under in vitro conditions.
The experimental procedure is briefly described as follows: The recombinant human KRAS G12C protein (aa1-169) was prepared with a reaction buffer (20 mM HEPES, 150 mM NaCl, 1 mM MgCl2, 1 mM DTT) at a concentration of 4 μM for later use. The test compound was prepared with DMSO into a 10 mM stock solution, which was then diluted with the reaction buffer for later use. First, 1.5 μL of the test compound diluted with the reaction buffer was added to each well (a final concentration of the reaction system was […]), then added with 23.5 μL of the reaction buffer, mixed well, then added with 25 μL of 4 μM recombinant human KRAS G12C protein for 5 min of incubation at room temperature, and added with 5 μL of acetic acid to stop the reaction. The samples were transferred to injection vials. The ratios of covalent binding between the test compounds and KRAS G12C protein were detected by Agilent 1290/6530 instrument, and the samples were analyzed in a liquid chromatography column (XBridge Protein BEH C4, 300 Å, 3.5 μm, 2.1 mm×50 mm). In the detection process, mobile phase A was 0.1% formic acid aqueous solution, mobile phase B was acetonitrile, the mobile phase elution program was as follows: mobile phase A was kept at 95% at 0-0.5 min, changed to 30% at 2.5 min for 0.5 min, and changed to 95% at 3.1 min for 1.9 min; and flow rate was 0.5 mL/min. Finally, the data was analyzed by MassHunter Workstation Software Bioconfirm Version B.08.00 to obtain the covalent binding rate between the test compound at a concentration of 3 μM and KRAS G12C protein under 5 min of incubation.

[2] = tested on: p-ERK1/2 in NCI-H358 cells; assay: Inhibition of p-ERK1/2 in NCI-H358 cells (HTRF kit); format: cell-based; conditions: Homo sapiens, hEGF 5 nM stimulation, read-out: IC50 inhibiting p-ERK1/2 in NCI-H358 cells
Excerpt: The following method was used to determine the inhibitory activity of the compounds of the present disclosure on p-ERK1/2 in NCI-H358 cells. In this method, Advanced phospho-ERK1/2 (Thr202/tyr204) kit (Cat. No. 64AERPEH) from Cisbio company was used, and the detailed experimental operation can be referred to the kit instruction. NCI-H358 cells (containing KRAS G12C mutation) were purchased from the Cell Resource Center, Shanghai Institutes for Biology Sciences, Chinese Academy of Sciences.
The experimental procedure is briefly described as follows: NCI-H358 cells were cultured in RPMIH 1640 complete medium containing 10% fetal bovine serum, 100 U penicillin, 100 μg/mL streptomycin and 1 mM sodium pyruvate. […] The 96-well plate was placed on ice for half an hour of lysis, and then the lysate was detected according to the instruction of the Advanced phospho-ERK1/2 (Thr202/tyr204) kit. Finally, the fluorescence intensity of each well at emission wavelengths of 620 nm and 665 nM was measured on a microplate reader in TF-FRET mode at an excitation wavelength of 304 nm, and the ratio of the fluorescence intensity of each well at 665/620 was calculated. The percentage of inhibition rate of the test compounds at each concentration was calculated by comparing with the fluorescence intensity of the control group (0.1% DMSO). […]

[3] = ICR mouse pharmacokinetic research; format: in vivo; conditions: plasma, po, ICR mice, intragastric administration 5 mg/kg
Protocol: ICR mice were used as test animals. The drug concentrations in plasma at different time points of the compounds in Comparative Example 1 and Example 17 of the present disclosure intragastrically administered to the mice were determined by LC/MS/MS method, to study the pharmacokinetic characteristics of the compounds of the present disclosure in mice.
Preparation for intragastric administration: An appropriate amount of the compound to be tested was weighed, added with an appropriate amount of DMSO: PEG 200=5%: 95% (v/v), shaken by vortex, and prepared into a solution with a final concentration of 0.5 mg/mL.
Intragastric administration group: After fasting overnight, the mice were intragastrically administered at a dose of 5 mg/kg and a volume of 10 mL/kg, and fed 4 h after the administration.
Intragastric administration group: About 100 μL of blood was collected through the orbital vein before administration and at 0.25 h, 0.5 h, 1 h, 2 h, 4 h, 8 h, 12 h and 24 h after administration.
The whole blood sample was put in an EDTA-K2 anticoagulant tube. The plasma was separated by centrifugation at 1500 g for 10 min. The collected upper layer plasma was stored at −40 to −20° C. before analysis.
The content of the compound to be tested in mouse plasma was determined by LC-MS/MS after the compound was intragastrically administered.

T1 sequence (P01116 1-169 isoform P01116-2 G12C): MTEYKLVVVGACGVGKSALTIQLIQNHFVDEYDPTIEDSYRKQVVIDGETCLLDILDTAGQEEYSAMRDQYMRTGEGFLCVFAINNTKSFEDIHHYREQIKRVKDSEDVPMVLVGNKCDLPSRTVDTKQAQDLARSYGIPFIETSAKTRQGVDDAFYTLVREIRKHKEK

- Covalent binding rate (%) [1]: 63.4%
- IC50 [2]: 83.4 nM
- AUC(0-inf) ([3]; read-out: Area under curve AUC0-∞): 6380 ng·h/mL
- Cmax ([3]; read-out: Blood concentration Cmax): 1400 ng/mL
- half-life ([3]; read-out: Half-life T½ (converted)): 2.36 h
SMILES: C=CC(=O)N1C[C@@H]2C(=O)N(C)c3c(c4cc(Cl)c(-c5c(O)cccc5F)nc4n(-c4c(SC)ccnc4C(C)C)c3=O)N2C[C@H]1C (single isomer, unassigned) [Compound 17]
